SMILES strings stand for the structures. Several values for one entry are separate records, joined by “and”; a condition that tells them apart may be missing. Equal entries are not always repeated.

The subject of series [1] is polyvalent resistant (CH strain) houseflies. Description: whole plant or invertebrate. It counts as in vivo. Here is the method:
The effect of O-(2-propynyl) oximes with Dimetilan and with GS 13798 was obtained from tests on polyvalent resistant (CH strain) houseflies that had been chilled and to the dorsal region of which was applied an acetone solution of synergist and insecticide at a ratio of two to one. Duplicate tests were performed using 10 four to five-day old female houseflies per test. After dosage, the flies were put in a plastic petri dish with cotton soaked in a sugar-water solution. These doses of insecticide used without synergist caused 10-40% mortality.
(§1) In Table IX, and in the tables following it, the doses of topically applied insecticides and of synergists unless otherwise noted are expressed as micrograms per fly (μg/fly).
The effect of compounds II-C, II-D and II-E with Dimetilan and GS 13798 was determined, following the procedure of Example 5, from tests on polyvalent resistant (CH strain) houseflies. These doses of insecticide used without synergist caused 10-40% mortality.
(§2) The synergistic effect with GS 13005 of compounds I-A, I-B, I-D, I-E, I-F, I-G and I-I was determined from topical application tests to IN/WHO strain, Rutgers A strain and polyvalent CH strain houseflies using the procedures of Example 5. The percent kills of the IN/WHO strain flies after 24 hours are shown in Table XXVIII; of the Rutgers A strain, in Table XXIX; and of the polyvalent CH strain, in Table XXX. The doses of insecticide alone to the CH strain files caused 10-40% mortality.
(§3) The synergistic effect with Diazinon and GS 13005 of various of the benzyl 2-propynyl ethers identified in Tables II and IIa was determined by topical application tests on IN/WHO strain, and Rutgers A strain and polyvalent, resistant, CH strain houseflies using the procedures of Example 5. The percent kills after 24 hours of IN/WHO strain flies are shown in Table XXXI; of Rutgers A strain flies, in Table XXXII; and of CH strain flies, in Table XXXIII. The doses of insecticide alone to the CH strain flies caused 10-40% mortality.
The synergistic effect with pyrethrum of various synergist compounds was determined by topical application tests on polyvalent, resistant CH strain houseflies following the procedure of Example 5. Application of the insecticide alone caused 10-40% mortality.

The subject of series [2] is Swiss albino, white male mice. Description: acute toxicity and synergism of acute toxicity in mice. In kind it is in vivo. As to conditions: for Lethality, Dimetilan alone (number of mice dead): eight mice. A digest of the protocol: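 Male Swiss albino mice (23 to 27 g, five to six weeks), eight per dose, dosed intraperitoneally in corn oil: dimetilan alone at 4 to 32 mg per kg, synergists alone at 1000 mg/kg with deaths counted at 72 hours. For synergism, synergist given 1 hour before insecticide, lethality observed for at least 6 hours.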

For series [3], the system named is German male cockroaches (Blatella Germanicus). The series can be described thus: topical application to thorax, 24 hour mortality of German male cockroaches. The conditions noted are these: cockroaches. In kind it is in vivo. Here is the method: The synergistic effect with mobam of synergist compounds I-B, II-H, II-K and IV-C is further illustrated by the 24 hour mortality data of German male cockroaches (Blatella Germanicus) shown in Table XXXX. The synergists and insecticide were diluted in acetone and applied in small droplets to the thorax of the insect. These doses of synergist alone gave zero percent insect mortality.
The synergistic effect with GS 13005 of compounds I-B, II-H, II-K, II-P, II-Q, II-R and IV-C is illustrated by the 24 hour mortality of German male cockroaches shown in Table XXXXI. These doses of synergist alone caused zero percent insect mortality.

The subject of series [4] is IN/WHO strain house flies. The series can be described thus: topical application, percent kill after 24 hours, susceptible IN/WHO strain. In kind it is in vivo, female). A digest of the protocol: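 Insecticide plus synergist in acetone, 1.0 μl applied to the thorax of CO2-anesthetized 3-to-5-day-old female IN/WHO house flies, doses in μg/fly. Flies held 10 per dish, 3-5 dishes per treatment, with skim milk. Percent mortality scored after 24 h.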

The subject of series [5] is Wilson strain house flies. It counts as in vivo, Wilson strain (susceptible). Here is the method:
The required solutions of the insecticide and of the synergist compound were prepared in acetone at a concentration of 1 milligram per milliliter. One-pint wide mouth glass jars were coated with the appropriate insecticide-synergist combination by rolling the jars containing aliquots of the appropriate solutions diluted to three milliliters with acetone to deposit, by evaporation, a film of the test materials. The flies were transferred under carbon dioxide anesthesia and held in the jar at room temperature. Perforated aluminum foil was used to cover the jars and to hold cotton saturated with 10% sugar solution. Counts were made at intervals, but the recorded mortality was based on 24-hour kill, rather than knockdown. All prostrate non-moving flies were considered dead. A determination was then made of the contact synergistic ratio [SR], which is the ratio of the LC50 of insecticide alone to the LC50 of the insecticide when applied together with the synergist. The LC50 of the insecticide was estimated from a log-probit plot of percent kill versus dosage. […] The LC50 of the combination of insecticide and synergist was determined at a synergist to insecticide parts by weight ratio of five to one.

Series [6] has as its system houseflies. Description: topical application with Diazinon, Table XXVII (strain not given). In kind it is in vivo.
Series [7] deals with Rutgers A strain house flies. The series can be described thus: topical application, percent kill after 24 hours, resistant Rutgers A strain. In kind it is in vivo, female). Here is the method:
as §1
The synergistic effect of O-(2-propynyl) oximes with mobam was determined from topical application tests on susceptible, female, IN/WHO strain house flies and from tests on resistant, female, Rutgers A strain house flies. The synergist and insecticide were dissolved in ACS Grade acetone in such quantities that a 1.0 μ liter volume applied to the thorax of 3-to-5 day old CO2 -anesthetized female adult house flies contained the desired dosage. After being treated, the flies were confined, 10 to a plaster petri dish, with 3-5 dishes/treament, and held for 24-hr. observation of mortality. Reconstituted skim milk on cotton dental wicks was provided during the holding period. The percent kills after 24 hours are shown in Table X for the IN/WHO strain and Table XI for the Rutgers A strain.
The synergistic effect of benzyl 2-propynyl ethers with mobam was determined from topical application tests on IN/WHO and Rutgers A strain houseflies, following the procedure of Example 5. The percent kills after 24 hours are shown in Table XIV for the IN/WHO strain and in Table XV for the Rutgers A strain.
The synergistic effect with Diazinon of compounds I-B, I-D, I-F, I-G, I-H and I-I, identified in Tables I and Ia, was determined from topical application tests on IN/WHO strain houseflies and on Rutgers A strain houseflies by the procedure of Example 5. The percent kills after 24 hours are shown in Table XXV for the IN/WHO strain and Table XXVI for the Rutgers A strain.
as §2, §3
The synergistic effect on IN/WHO strain flies and Rutgers A strain flies of compound IV-C with GS 13005 and with Diazinon was determined by the topical application procedure of Example 5. The percent kills of IN/WHO strain flies after 24 hours are shown in Tables XXXVI and XXXVII; the percent kills of Rutgers A strain flies are shown in Tables XXXVIII and XXXIX.

Where [8] appears, read: house fly, in vivo, topical or ocular, 24 h.
The mark [9] stands for this setting: Dimetilan 8 mg/kg, oil in place of synergist, 48 hours.

In the case of `COc1nn(CSP(=S)(OC)OC)c(=O)s1` [GS 13005, S-((2-methoxy-5-oxo-Δ^2-1,3,4-thiadiazolin-4-yl)methyl) O,O-dimethyl phosphorodithioate, reference compound], in series [1] (setting [8]), the “mortality, insecticide used without synergist” value is 10-40%. In addition, in series [2] (GS 13005 (71 mg/kg) in 0.1 ml corn oil), the “number of mice dead, control (GS 13005 alone)” value is recorded as 5. For the same molecule, the “24 hour mortality, GS 13005 alone” value in series [3] (GS 13005 dose 0.08, synergist 0, 1440 min) is 15% and 23% and 10%. The “percent kill after 24 hours, GS 13005 alone” value in series [4] (GS 13005 0.05, synergist 0 μg/fly) was 0%; in series [4] (GS 13005 0.10, synergist 0 μg/fly, 1440 min), 19% and 16% and 12%.
As for `C#CCON=Cc1ccc(OC)c(OC)c1` [I-A], the “percent kill after 24 hours, with Dimetilan” value in series [1] (Dimetilan 2 + synergist 4 μg/fly, CH strain) is 100%. In addition, in series [1] (GS 13005 1 + synergist 2 μg/fly, CH strain), the “percent kill after 24 hours, with GS 13005” value is 45%. Moreover, the mortality at 10 µg/fly in series [1] (Musca domestica, topical, 24 h, insecticide 0, synergist 10 μg/fly, CH strain, read-out: percent kill after 24 hours, synergist alone) worked out at 0%; in series [6] (Musca domestica, topical, 24 h, Diazinon 0, synergist 10 μg/fly, read-out: percent kill after 24 hours, synergist alone (Table XXVII)), 0%. Besides, the “percent kill after 24 hours, with pyrethrum” value in series [1] (Pyrethrum 2 + synergist 4 μg/fly, CH strain) was 15%. In addition, in series [1] (insecticide 0, synergist 10 μg/fly, CH strain), the “percent kill after 24 hours, synergist alone” value is reported as 0%. Also, in series [5] (LC50 pyrolan alone / LC50 with synergist, synergist to insecticide 5:1 by weight), the “Contact Synergistic Ratio, Pyrolan” value worked out at 30. For the same molecule, the “Contact Synergistic Ratio, Carbaryl” value in series [5] (in vivo) was 200. Further, the “percent kill after 24 hours, with Diazinon (Table XXVII)” value in series [6] (Diazinon 5 + synergist 10 μg/fly) is on record as 45%.
On to `Cc1cc(OC(=O)N(C)C)nn1C(=O)N(C)C` [Dimetilan, 1-(dimethylcarbamoyl)-5-methyl-3-pyrazolyl dimethylcarbamate, reference compound], for which, in series [1] (insecticide alone at the doses of the CH strain tables, 1440 min), the “mortality, insecticide used without synergist” value is on record as 10-40%. Also, the “Lethality, Dimetilan alone (number of mice dead)” value is recorded as 0 in series [2] (4.0 mg/kg i.p., 48 hours); 0 in series [2] (8.0 mg/kg i.p., 48 hours); 1 in series [2] (12.0 mg/kg i.p., 48 hours); 3 in series [2] (16.0 mg/kg i.p., 48 hours); 4 in series [2] (20.0 mg/kg i.p., 48 hours); 7 in series [2] (24.0 mg/kg i.p., 48 hours). The “Lethality, Dimetilan alone (number of mice dead)” value is 8 in series [2] (28.0 mg/kg i.p., 48 hours) and 8 in series [2] (32.0 mg/kg i.p., 48 hours). Further, the “number of mice dead, Dimetilan control (0.1 ml oil), 80 mg/kg” value in series [2] (setting [9]) was 0. The “number of mice dead, Dimetilan control (0.1 ml oil), 240 mg/kg” value in series [2] (setting [9]) was 0. Besides, in series [2] (i.p., 48 hours), the “dose level just below that at which Dimetilan alone showed lethality to the mice” value is 8 mg/kg. In series [5] (insecticide alone, common house fly), the “lethality to the common house fly, in words” value was “relatively lethal”. In addition, the “24 hour percent mortality, Dimetilan alone” value in series [4] (Dimetilan 0.031 μg/fly) is 0%.
On to `CCOP(=S)(OCC)Oc1cc(C)nc(C(C)C)n1` [Diazinon, O,O-diethyl O-(2-isopropyl-4-methyl-6-pyrimidyl) phosphorothioate, reference compound], for which the “mortality, insecticide used without synergist” value in series [1] (setting [8]) is 10-40%. Besides, the “percent kill after 24 hours, Diazinon alone” value in series [7] (Diazinon 1.0, synergist 0 μg/fly) was 0%; in series [7] (Diazinon 1.5, synergist 0 μg/fly, 1440 min), 3% and 0%; in series [4] (Diazinon 0.02, synergist 0 μg/fly), 3%; in series [4] (Diazinon 0.03, synergist 0 μg/fly, 1440 min), 0% and 5%.
For the molecule `CNC(=O)Oc1cccc2sccc12` [Mobam, 4-benzo(b) thienyl-N-methylcarbamate, reference compound], the “percent kill after 24 hours, Mobam alone” value is on record as 0% in series [7] (Mobam 0.15, synergist 0 μg/fly); 0% in series [7] (Mobam 0.30, synergist 0 μg/fly); 7% in series [7] (Mobam 0.40, synergist 0 μg/fly); 4% in series [7] (Mobam 0.60, synergist 0 μg/fly); 0% in series [4] (Mobam 0.05, synergist 0 μg/fly); “zero” in series [4] (Mobam 0.10, synergist 0 μg/fly). For the same molecule, the “percent kill after 24 hours, Mobam alone” value was 0% in series [4] (Mobam 0.10, synergist 0 μg/fly, 1440 min); 6% and 2% and 9% in series [4] (Mobam 0.20, synergist 0 μg/fly, 1440 min). The “24 hour mortality, Mobam alone” value was determined as 10% in series [3] (Mobam dose 0.12, synergist 0) and 30% in series [3] (Mobam dose 0.16, synergist 0). Besides, the “percent mortality 24 hours, Mobam alone” value came out at 0% in series [4] (Mobam 0.13 μg/fly alone); 27% in series [4] (Mobam 0.25 μg/fly alone, 1440 min); 83% in series [4] (Mobam 0.50 μg/fly alone, 1440 min); 93% in series [4] (Mobam 1.0 μg/fly alone, 1440 min).

Source of the values: US3954793A, “1-(2-Propynyl)-1 H-indazole compounds” (priority 1973, dated 1976).
